Assay results as given in patent publication US4372964A, “Antiinflammatory 4,5-diaryl-1H-imidazole-2-methanols” (E. I. Du Pont de Nemours and Company, priority 1981, dated 1983).
Like-named read-outs stand apart in the source and are kept apart here.

How the values were obtained:
[1] = test system: phenylquinone writhing in mice; experiment: Phenylquinone Writhing Test; type: in vivo, female white mice; details: Mus musculus, oral, observed from 30 minutes after dosing for 10 minutes
Protocol: Aqueous (0.10% phenyl-p-benzoquinone) phenylquinone was injected intraperitoneally at 24 minutes later using 0.20 ml per mouse.

[2] = test system: adjuvant-induced arthritis in rats; experiment: Established Adjuvant-Induced Arthritis in Rats; type: in vivo, Lewis (Wistar) male rats; details: Rattus norvegicus; for ED50: oral once daily 7 days (days 14-20), decrease from control paw volume, day 21; for inhibition in vivo at 9 mg/kg: Table 3, dose 9 mg/kg
[3] = 168 h, oral once daily 7 days, read-out: Adjuvant Arthritis, percent reduction in paw volume at the indicated dose
[4] = 168 h, Table 4, dose 25 mg/kg, oral once daily 7 days, read-out: Adjuvant Arthritis, percent reduction in paw volume at the indicated dose
[5] = 168 h, Table 3, dose 50 mg/kg, oral once daily 7 days, read-out: Adjuvant Arthritis, percent reduction in paw volume at the indicated dose
[6] = 168 h, Table 3, dose 25 mg/kg, oral once daily 7 days, read-out: Adjuvant Arthritis, percent reduction in paw volume at the indicated dose

## COc1ccc(-c2nc(C(O)(C(F)(F)F)C(F)(F)Cl)[nH]c2-c2ccc(OC)cc2)cc1 (stereo not drawn) [Example 12]
[1]; Table 3, Formula I
  ED50: 42 mg/kg
[2]; Table 3, Formula I
  ED50: 6 mg/kg

## COc1ccc(-c2nc(C(O)C(F)(F)F)[nH]c2-c2ccc(OC)cc2)cc1 (stereo not drawn) [Example 10, 4,5-Bis(4-methoxyphenyl)-α-(trifluoromethyl)-1H-imidazole-2-methanol]
[1]; Table 3, Formula I
  ED50: 1.9 mg/kg
[2]; Table 3, Formula I
  ED50: 45 mg/kg

## COc1ccc(-c2nc(C(C)(O)C3CC3)[nH]c2-c2ccc(OC)cc2)cc1 (stereo not drawn) [Example 33]
[1]; Table 3, Formula I
  ED50: 5.6 mg/kg
[2]; [3]
  inhibition in vivo at 9 mg/kg: 46%

## OC(c1nc(-c2ccccc2)c(-c2ccccc2)[nH]1)(C(F)(F)F)C(F)(F)F [Example 20]
[1]; Table 3, Formula I
  ED50: 57 mg/kg
[2]; Table 3, Formula I
  ED50: 27 mg/kg

## COc1ccc(-c2nc(C(C)(O)C(F)(F)C(F)(F)F)[nH]c2-c2ccc(OC)cc2)cc1 (stereo not drawn) [Example 29, 4,5-bis(4-methoxyphenyl)-α-methyl-α-pentafluoroethyl-1H-imidazole-2-methanol]
[1]; Table 3, Formula I
  ED50: 3.5 mg/kg
[2]; Table 3, Formula I
  ED50: 15 mg/kg

## OC(c1nc(-c2ccc(F)cc2)c(-c2cccs2)[nH]1)(C(F)(F)F)C(F)(F)F [Example 14]
[1]; Table 3, Formula I
  ED50: > 108 mg/kg
[2]; Table 3, Formula I
  ED50: 90 mg/kg

## CC(=O)OC(c1nc(-c2ccc(F)cc2)c(-c2ccc(F)cc2)[nH]1)(C(F)(F)F)C(F)(F)F [Example 25]
[1]; Table 3, Formula I
  ED50: > 108 mg/kg
[2]; Table 3, Formula I
  ED50: 13 mg/kg

## COc1ccc(-c2nc(C(=O)C(F)(F)F)[nH]c2-c2ccc(OC)cc2)cc1 [Example 9, 1-[4,5-Bis(4-methoxyphenyl)-1H-imidazol-2-yl]2,2,2-trifluoro-1-ethanone]
[1]; Table 4, Formula II
  ED50: > 108 mg/kg
[2]; Table 4, Formula II
  ED50: 25 mg/kg

## CSc1ccc(-c2[nH]c(C(O)(C(F)(F)F)C(F)(F)F)nc2-c2ccc(F)cc2)cc1 [Example 21]
[2]; 168 h, Table 3, dose 15 mg/kg, oral once daily 7 days, read-out: Adjuvant Arthritis, percent reduction in paw volume at the indicated dose
  inhibition in vivo at 15 mg/kg: 61%

## OC(c1nc(-c2ccc(Cl)cc2)c(-c2ccc(Cl)cc2)[nH]1)(C(F)(F)F)C(F)(F)F [Example 22]
[1]; Table 3, Formula I
  ED50: > 135 mg/kg
[2]; [3]
  inhibition in vivo at 9 mg/kg: 37%

## CC(O)(c1nc(-c2ccc(F)cc2)c(-c2ccc(F)cc2)[nH]1)C(F)(F)F (stereo not drawn) [Example 3, 4,5-Bis(4-fluorophenyl)-α-methyl-α-trifluoromethyl-1H-imidazole-2-methanol]
[1]; Table 3, Formula I
  ED50: 39 mg/kg
[2]; Table 3, Formula I
  ED50: 1.8 mg/kg

## OC(c1nc(-c2ccc(F)cc2)c(-c2ccc(F)cc2)[nH]1)C(F)(F)F (stereo not drawn) [Example 27]
[1]; Table 3, Formula I
  ED50: > 108 mg/kg
[2]; Table 3, Formula I
  ED50: 14 mg/kg

## COc1ccc(-c2nc(C(=O)C(F)(F)C(F)(F)F)[nH]c2-c2ccc(OC)cc2)cc1 [Example 38, 1-[4,5-bis(4-methoxyphenyl)-1H-imidazol-2-yl]-2,2,3,3,3-pentafluoro-1-propanone]
[1]; Table 4, Formula II
  ED50: 2.3 mg/kg
[2]; [4]
  inhibition in vivo at 25 mg/kg: 62%

## CCCC(O)(c1nc(-c2ccc(F)cc2)c(-c2ccc(F)cc2)[nH]1)C(F)(F)F (stereo not drawn) [Example 32]
[1]; Table 3, Formula I
  ED50: > 108 mg/kg
[2]; Table 3, Formula I
  ED50: 8.6 mg/kg

## O=C(c1nc(-c2ccc(F)cc2)c(-c2ccc(F)cc2)[nH]1)C(F)(F)C(F)(F)F [Example 39, 1-[4,5-bis(4-fluorophenyl)-1H-imidazol-2-yl]-2,2,3,3,3-pentafluoro-1-propanone]
[2]; Table 4, Formula II
  ED50: 3 mg/kg

## OC(c1nc(-c2ccc(F)cc2)c(-c2ccc(F)cc2)[nH]1)(C(F)(F)F)C(F)(F)F [Example 1, 4,5-Bis(4-fluorophenyl)-α,α-di(trifluoromethyl)-1H-imidazole-2-methanol]
[1]; Table 3, Formula I
  ED50: > 108 mg/kg
[2]; Table 3, Formula I
  ED50: 8 mg/kg

## CCC(C)(O)c1nc(-c2ccc(OC)cc2)c(-c2ccc(OC)cc2)[nH]1 (stereo not drawn) [Example 34]
[1]; Table 3, Formula I
  ED50: 5.2 mg/kg
[2]; [5]
  inhibition in vivo at 50 mg/kg: 82%

## CC(O)(c1nc(-c2ccc(F)cc2)c(-c2ccc(F)cc2)[nH]1)C(F)(F)C(F)(F)F (stereo not drawn) [Example 11, 4,5-Bis(4-Fluorophenyl)-α-methyl-α-/pentafluoroethyl-1H-imidazole-2-methanol]
[1]; Table 3, Formula I
  ED50: > 108 mg/kg
[2]; Table 3, Formula I
  ED50: 1.4 mg/kg

## Cn1c(C(C)(C)O)nc(-c2ccc(F)cc2)c1-c1ccc(F)cc1 [Example 26]
[1]; Table 3, Formula I
  ED50: > 108 mg/kg
[2]; [6]
  inhibition in vivo at 25 mg/kg: 47%

## COc1ccc(-c2nc(C(O)(C(F)(F)F)C(F)(F)F)[nH]c2-c2ccc(OC)cc2)cc1 [Example 2, 4,5-Bis(4-methoxyphenyl)-α,α-di(trifluoromethyl)-1H-imidazole-2-methanol]
[1]; Table 3, Formula I
  ED50: 2.7 mg/kg
[2]; Table 3, Formula I
  ED50: 5 mg/kg

## COc1ccc(-c2nc(C(C)=O)[nH]c2-c2ccc(OC)cc2)cc1 [Example 40]
[1]; Table 4, Formula II
  ED50: > 135 mg/kg
[2]; 168 h, Table 4, dose 50 mg/kg, oral once daily 7 days, read-out: Adjuvant Arthritis, percent reduction in paw volume at the indicated dose
  inhibition in vivo at 50 mg/kg: 56%

## COc1ccc(-c2nc(C(O)(C(F)(F)F)C(F)(F)F)n(C)c2-c2ccc(OC)cc2)cc1 [Example 4, 4,5-Bis(4-methoxyphenyl)-1-methyl-α,α-(trifluoromethyl)-1H-imidazole-2-methanol]
[1]; Table 3, Formula I
  ED50: > 135 mg/kg
[2]; Table 3, Formula I
  ED50: 15 mg/kg

## O=C(c1nc(-c2ccc(F)cc2)c(-c2ccc(F)cc2)[nH]1)C(F)(F)F [Example 8, 1-[4,5-Bis(4-fluorophenyl)-1H-imidazol-2-yl]-2,2,2-trifluoro-1-ethanone]
[1]; Table 4, Formula II
  ED50: > 108 mg/kg
[2]; [4]
  inhibition in vivo at 25 mg/kg: 49%

## COc1ccc(-c2nc(C(OC(C)=O)(C(F)(F)F)C(F)(F)F)n(C)c2-c2ccc(OC)cc2)cc1 [Example 5, 4,5-Bis(4-methoxyphenyl)-1-methyl-α,α-di(trifluoromethyl)-1H-imidazole-2-methanol, Acetate]
[1]; Table 3, Formula I
  ED50: > 108 mg/kg
[2]; [6]
  inhibition in vivo at 25 mg/kg: 45%

## COc1ccc(-c2nc(C(C)(O)C(F)(F)F)[nH]c2-c2ccc(OC)cc2)cc1 (stereo not drawn) [Example 18, 4,5-bis(4-methoxyphenyl)-α-methyl-α-trifluoromethyl-1H-imidazole-2-methanol]
[1]; Table 3, Formula I
  ED50: 2.2 mg/kg
[2]; Table 3, Formula I
  ED50: 5.4 mg/kg

## CCC(O)(c1nc(-c2ccc(F)cc2)c(-c2ccc(F)cc2)[nH]1)C(F)(F)F (stereo not drawn) [Example 31, 4,5-bis(4-fluorophenyl)-α-ethyl-α-trifluoromethyl-1H-imidazole-2-methanol]
[1]; Table 3, Formula I
  ED50: > 108 mg/kg
[2]; Table 3, Formula I
  ED50: 1.7 mg/kg

## COc1ccc(-c2nc(C(O)C(F)(F)F)n(C)c2-c2ccc(OC)cc2)cc1 (stereo not drawn) [Example 19]
[1]; Table 3, Formula I
  ED50: > 108 mg/kg
[2]; 168 h, Table 3, dose 27 mg/kg, oral once daily 7 days, read-out: Adjuvant Arthritis, percent reduction in paw volume at the indicated dose
  inhibition in vivo at 27 mg/kg: 0%

## CCOC(=O)OC(c1nc(-c2ccc(OC)cc2)c(-c2ccc(OC)cc2)n1C)(C(F)(F)F)C(F)(F)F [Example 6, 4,5-Bis(4-methoxyphenyl)-1-methyl-α,α-di(trifluoromethyl)-1H-imidazole-2-methanol, Ethylcarbonate]
[1]; Table 3, Formula I
  ED50: > 108 mg/kg
[2]; 168 h, Table 3, dose 45 mg/kg, oral once daily 7 days, read-out: Adjuvant Arthritis, percent reduction in paw volume at the indicated dose
  inhibition in vivo at 45 mg/kg: 17%

## CC(=O)c1nc(-c2ccc(F)cc2)c(-c2ccc(F)cc2)[nH]1 [Example 41]
[2]; [4]
  inhibition in vivo at 25 mg/kg: 0%

## OC(c1nc(-c2ccc(F)cc2)c(-c2ccc(F)cc2)[nH]1)C(F)(F)C(F)(F)F (stereo not drawn) [Example 23]
[1]; Table 3, Formula I
  ED50: 24 mg/kg
[2]; Table 3, Formula I
  ED50: 6.8 mg/kg

## CSc1ccc(-c2[nH]c(C(C)(O)C(F)(F)F)nc2-c2ccc(F)cc2)cc1 (stereo not drawn) [Example 24]
[1]; Table 3, Formula I
  ED50: 102 mg/kg
[2]; [3]
  inhibition in vivo at 9 mg/kg: 51%

## COc1ccc(-c2nc(C(O)(C(F)F)C(F)(F)F)[nH]c2-c2ccc(OC)cc2)cc1 (stereo not drawn) [Example 15, 4,5-bis(4-methoxyphenyl)-α-difluoromethyl-α-trifluoromethyl-1H-imidazole-2-methanol]
[1]; Table 3, Formula I
  ED50: 1.4 mg/kg
[2]; Table 3, Formula I
  ED50: 3 mg/kg

## OC(c1nc(-c2ccc(F)cc2)c(-c2ccc(F)cc2)[nH]1)(C(F)F)C(F)(F)F (stereo not drawn) [Example 16, 4,5-bis(4-fluorophenyl)-α-difluoromethyl-α-trifluoromethyl-1H-imidazole-2-methanol]
[1]; Table 3, Formula I
  ED50: > 108 mg/kg
[2]; Table 3, Formula I
  ED50: 4.8 mg/kg

## CC(C)(O)c1nc(-c2ccc(F)cc2)c(-c2ccc(F)cc2)[nH]1 [Example 28]
[1]; Table 3, Formula I
  ED50: > 108 mg/kg
[2]; [5]
  inhibition in vivo at 50 mg/kg: 48%

## COc1ccc(-c2nc(C(C)O)[nH]c2-c2ccc(OC)cc2)cc1 (stereo not drawn) [Example 35]
[1]; Table 3, Formula I
  ED50: 26 mg/kg
[2]; Table 3, Formula I
  ED50: 3.6 mg/kg

## COc1ccc(-c2nc(C(O)(C(F)(F)Cl)C(F)(F)Cl)[nH]c2-c2ccc(OC)cc2)cc1 [Example 13]
[1]; Table 3, Formula I
  ED50: 135 mg/kg
[2]; Table 3, Formula I
  ED50: 15 mg/kg

## COc1ccc(-c2nc(C(OC)(C(F)(F)F)C(F)(F)F)[nH]c2-c2ccc(OC)cc2)cc1 [Example 7, 4,5-Bis(4-methoxyphenyl)-2-[1-methoxy-2,2,2-trifluoro-1-(trifluoromethyl)ethyl]-1H-imidazole]
[1]; Table 3, Formula I
  ED50: 32 mg/kg
[2]; Table 3, Formula I
  ED50: 4.4 mg/kg

## COc1ccc(-c2nc(C(=O)C(F)(F)F)n(C)c2-c2ccc(OC)cc2)cc1 [Example 36, 1-[4,5-bis(4-methoxyphenyl)-1-methyl-1H-imidazol-2-yl]-2,2,2-trifluoro-1-ethanone]
[1]; Table 4, Formula II
  ED50: > 108 mg/kg
[2]; [4]
  inhibition in vivo at 25 mg/kg: 28%

## OC(c1nc(-c2ccccc2)c(-c2ccc(Cl)c(Cl)c2)[nH]1)(C(F)(F)F)C(F)(F)F [Example 17]
[2]; [5]
  inhibition in vivo at 50 mg/kg: 21%

## CSc1ccc(-c2[nH]c(C(=O)C(F)(F)F)nc2-c2ccc(F)cc2)cc1 [Example 37]
[1]; Table 4, Formula II
  ED50: > 108 mg/kg
[2]; [4]
  inhibition in vivo at 25 mg/kg: 24%

## COc1ccc(-c2nc(C(C)(C)O)[nH]c2-c2ccc(OC)cc2)cc1 [Example 30, 4,5-bis(4-methoxyphenyl)-α,α-dimethyl-1H-imidazole-2-methanol]
[1]; Table 3, Formula I
  ED50: 4.6 mg/kg
[2]; Table 3, Formula I
  ED50: 6.4 mg/kg
